Source: US10272081B2, “SHIP1 modulators and methods related thereto” (Aquinox Pharmaceuticals (Canada) Inc., priority 2013, dated 2019)

target: T1, His-hSHIP1 enzyme (Homo sapiens, UniProt Q92835); experiment: His-hSHIP1 activity, approach 2 (ratio of initial velocities IP4 25/IP4 250); format: biochemical; design: key: +++: higher than reference or reference - 15%; ++: reference - 16% to reference - 30%; +: reference - 31% or lower; details: ratio of initial velocities IP4 25/IP4 250 versus reference SHIP1 activator; asterisk in Table 2
T1 construct: His
T1 sequence (Q92835 1-1189): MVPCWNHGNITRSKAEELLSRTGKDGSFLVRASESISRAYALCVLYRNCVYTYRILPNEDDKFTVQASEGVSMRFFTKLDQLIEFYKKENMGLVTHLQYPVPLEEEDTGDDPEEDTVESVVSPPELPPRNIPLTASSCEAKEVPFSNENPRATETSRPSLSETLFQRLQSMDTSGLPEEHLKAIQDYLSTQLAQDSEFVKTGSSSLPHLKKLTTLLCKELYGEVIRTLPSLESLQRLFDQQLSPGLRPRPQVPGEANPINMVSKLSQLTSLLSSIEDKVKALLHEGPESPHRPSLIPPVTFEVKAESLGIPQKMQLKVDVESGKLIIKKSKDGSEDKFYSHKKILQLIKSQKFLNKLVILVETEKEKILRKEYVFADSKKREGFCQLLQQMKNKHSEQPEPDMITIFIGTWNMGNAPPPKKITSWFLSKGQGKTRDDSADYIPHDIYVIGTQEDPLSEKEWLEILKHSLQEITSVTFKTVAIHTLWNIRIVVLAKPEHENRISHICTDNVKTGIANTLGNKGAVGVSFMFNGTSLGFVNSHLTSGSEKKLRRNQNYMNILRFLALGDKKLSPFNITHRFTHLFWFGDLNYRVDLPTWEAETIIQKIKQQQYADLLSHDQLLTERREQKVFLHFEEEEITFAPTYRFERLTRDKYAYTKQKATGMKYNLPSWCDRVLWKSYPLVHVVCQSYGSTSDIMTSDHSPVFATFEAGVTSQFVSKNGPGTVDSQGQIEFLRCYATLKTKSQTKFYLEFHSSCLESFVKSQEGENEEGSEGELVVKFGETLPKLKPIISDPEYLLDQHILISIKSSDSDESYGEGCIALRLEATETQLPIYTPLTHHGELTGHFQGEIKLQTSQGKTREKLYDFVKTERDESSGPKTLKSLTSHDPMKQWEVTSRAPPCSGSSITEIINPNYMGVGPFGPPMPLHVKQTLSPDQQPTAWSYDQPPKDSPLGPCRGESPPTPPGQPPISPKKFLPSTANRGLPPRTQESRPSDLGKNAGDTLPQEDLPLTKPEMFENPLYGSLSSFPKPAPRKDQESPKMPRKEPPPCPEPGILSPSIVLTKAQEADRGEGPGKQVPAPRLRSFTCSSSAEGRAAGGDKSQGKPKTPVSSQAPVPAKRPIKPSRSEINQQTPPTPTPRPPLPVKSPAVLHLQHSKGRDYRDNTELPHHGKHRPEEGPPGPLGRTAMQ
Experimental: Test compounds are dissolved in 95% ethanol to form stock solutions. Before screening, the stock solutions are diluted with Phosphatase Assay Buffer (20 mM Tris-HCL, 10 mM MgCl2 pH 7.5, 0.02% Tween 20) to form working assay solutions that contain 10% ethanol. The assay is carried out on 96-well microtiter plates using a modified procedure of that reported by Ong et al., Blood 110, 1942-1949, 2007 and Yang et al., Org Lett 7, 1073-1076, 2005, both of which references are incorporated herein by reference in their entirety.
In the second approach, a master mix is prepared that contains […] (0.4-1.6 ng/μL final), 25 μL of the substrate, IP4 (25 or 250 μM final), and 50 μL of test compound in 3.3% ethanol ([…]). Control blanks are also prepared by replacing His-hSHIP1 enzyme, IP4, or test compounds with Phosphate Assay Buffer. […] Each reaction component is preincubated at 37° C. for 30 min before adding to a 96-well microtiter plate. The master mix is then incubated at 37° C. At time 0, 20, 25 and 30 min, 25 μL of the master mix is removed and transferred to a new 96-well microtiter plate, to which 100 μL of Biomol Green Reagent is added to stop the reaction. After incubating the mixture for 20 min at room temperature for color development, the absorbance is read with SpectraMax Plus 96-well plate reader at a wavelength of 650 nm. Phosphate released is plotted against time to calculate the initial velocities (i.e., slope of the graph) at each IP4 concentration. The initial velocities are baseline corrected and the ratio of initial velocities (IP425/IP4250) is calculated and used to rate the test compounds.

Row | SMILES | Scoring, Approach 2 (Initial velocity Ratio)
1 | Cc1cc(O)cc(C(=O)[C@H]2[C@H](C)[C@H](NC(=O)Nc3cccnc3)C[C@H]3C(C)(C)CCC[C@]23C)c1 [Compound No. 138, 3-[(2R,3S,4S,4aS,8aS)-4-[(3-hydroxy-5-methylphenyl)carbonyl]-3,4a,8,8-tetramethyl-decahydronaphthalen-2-yl]-1-(pyridin-3-yl)urea] | ++
2 | CC(=O)N[C@@H]1C[C@H]2C(C)(C)CCC[C@]2(C)[C@@H](C(=O)c2cc(C)cc(O)c2)[C@@H]1C [Compound No. 139, N-[(2R,3S,4S,4aS,8aS)-4-[(3-hydroxy-5-methylphenyl)carbonyl]-3,4a,8,8-tetramethyl-decahydronaphthalen-2-yl]acetamide] | ++
3 | C=C1[C@H](C(=O)c2cc(OC)cc(OC)c2)[C@@]2(C)CCCC(C)(C)[C@@H]2C[C@H]1O [Compound No. 141, (2R,4R,4aS,8aS)-4-[(3,5-dimethoxyphenyl)carbonyl]-4a,8,8-trimethyl-3-methylidene-decahydronaphthalen-2-ol] | +
4 | COc1cc(OC)cc(C(=O)C2=C(C)[C@H](O)C[C@H]3C(C)(C)CCC[C@]23C)c1 [Compound No. 142, (2R,4aS,8aS)-4-[(3,5-dimethoxyphenyl)carbonyl]-3,4a,8,8-tetramethyl-1,2,4a,5,6,7,8,8a-octahydronaphthalen-2-ol] | ++
5 | C[C@H]1CC[C@H]2C(C)(C)CCC[C@]2(C)[C@H]1CC(=O)Nc1cc(O)cc(O)c1 [Compound No. 149, 2-[(1S,2S,4aS,8aR)-2,5,5,8a-tetramethyl-decahydronaphthalen-1-yl]-N-(3,5-dihydroxyphenyl)acetamide] | ++
6 | CC1(C)CCC[C@]2(C)[C@@H](Cc3cc(O)cc(O)c3)[C@@H](C(=O)O)CC[C@@H]12 [Compound No. 157, (1S,2S,4aS,8aR)-1-[(3,5-dihydroxyphenyl)methyl]-5,5,8a-trimethyl-decahydronaphthalene-2-carboxylic acid] | ++
7 | COc1cc(OC)cc(S(=O)(=O)C[C@H]2C(C)C(O)C[C@H]3C(C)(C)CCC[C@]23C)c1 (stereo partly drawn) [Compound No. 173, (4S,4aS,8aS)-4-{[(3,5-dimethoxybenzene)sulfonyl]methyl}-3,4a,8,8-tetramethyl-decahydronaphthalen-2-ol] | +++
8 | Cc1cc(O)cc(C(=O)[C@H]2[C@H](C)[C@H](NC(=N)N)C[C@H]3C(C)(C)CCC[C@]23C)c1 [Compound No. 175, 1-[(2R,3S,4S,4aS,8aS)-4-[(3-hydroxy-5-methylphenyl)carbonyl]-3,4a,8,8-tetramethyl-decahydronaphthalen-2-yl]guanidine] | ++
9 | Cc1cc(O)cc(C(=O)[C@H]2[C@H](C)[C@H](NS(C)(=O)=O)C[C@H]3C(C)(C)CCC[C@]23C)c1 [Compound No. 176, N-[(2R,3S,4S,4aS,8aS)-4-[(3-hydroxy-5-methylphenyl)carbonyl]-3,4a,8,8-tetramethyl-decahydronaphthalen-2-yl]methanesulfonamide] | ++
10 | C[C@@H]1[C@H](NC(=N)N)C[C@H]2C(C)(C)CCC[C@]2(C)[C@H]1C(=O)c1cc(O)cc(O)c1 [Compound No. 178, 1-[(2R,3S,4S,4aS,8aS)-4-[(3,5-dihydroxyphenyl)carbonyl]-3,4a,8,8-tetramethyl-decahydronaphthalen-2-yl]guanidine] | +++
11 | C[C@@H]1[C@H](NS(C)(=O)=O)C[C@H]2C(C)(C)CCC[C@]2(C)[C@H]1C(=O)c1cc(O)cc(O)c1 [Compound No. 179, N-[(2R,3S,4S,4aS,8aS)-4-[(3,5-dihydroxyphenyl)carbonyl]-3,4a,8,8-tetramethyl-decahydronaphthalen-2-yl]methanesulfonamide] | +
12 | C[C@@H]1[C@H](NC(=O)CNS(=O)(=O)c2ccccc2C(=O)O)C[C@H]2C(C)(C)CCC[C@]2(C)[C@H]1C(=O)c1cc(O)cc(O)c1 [Compound No. 181, 2-[({[(2R,3S,4S,4aS,8aS)-4-[(3,5-dihydroxyphenyl)carbonyl]-3,4a,8,8-tetramethyl-decahydronaphthalen-2-yl]carbamoyl}methyl)sulfamoyl]benzoic acid] | +++
